Data reported in PubChem BioAssay AID330 (DTP/NCI, 2004).
“And” between values parts separate entries of the source, which are not always exact repeats. Identical values can stand only once. Toxic doses and inconclusive results are not listed. Rule for the calls: active = survival T/C of 150% or more; inactive = T/C below 125% in these data.

System: P388 leukemia ip, CD2F1 mice, survival T/C
Experiment: NCI In Vivo Anticancer Drug Screen. Data for tumor model P388 Leukemia (intraperitoneal) in CD2F1 (CDF1) mice
Conditions: endpoint: median survival time, higher = longer survival
Outline: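 Mice carrying the transplanted tumor received test compound or vehicle. Survival was recorded in each group, and the value is the treated-group measurement divided by that of the vehicle-treated control group.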

[1] = dose: 50.0 mg/kg/injection, schedule: Q01DX009 (ip), vehicle: saline with Tween-80
[2] = dose: 100.0 mg/kg/injection, schedule: Q01DX009 (ip), vehicle: saline with Tween-80
[3] = dose: 200.0 mg/kg/injection, schedule: Q01DX009 (ip), vehicle: saline with Tween-80
[4] = dose: 60.0 mg/kg/injection, schedule: Q01DX005 (ip), vehicle: saline
[5] = dose: 120.0 mg/kg/injection, schedule: Q01DX005 (ip), vehicle: saline
[6] = dose: 240.0 mg/kg/injection, schedule: Q01DX005 (ip), vehicle: saline
[7] = dose: 50.0 mg/kg/injection, schedule: Q01DX009 (ip), vehicle: saline
[8] = dose: 100.0 mg/kg/injection, schedule: Q01DX009 (ip), vehicle: saline
[9] = dose: 200.0 mg/kg/injection, schedule: Q01DX009 (ip), vehicle: saline
[10] = dose: 50.0 mg/kg/injection, schedule: Q01DX009 (ip), vehicle: Klucel (hydroxypropylcellulose) (HPC)
[11] = dose: 100.0 mg/kg/injection, schedule: Q01DX009 (ip), vehicle: Klucel (hydroxypropylcellulose) (HPC)
[12] = dose: 200.0 mg/kg/injection, schedule: Q01DX009 (ip), vehicle: Klucel (hydroxypropylcellulose) (HPC)
[13] = dose: 100.0 mg/kg/injection, schedule: Q04DX003 (ip), vehicle: saline with Tween-80
[14] = dose: 200.0 mg/kg/injection, schedule: Q04DX003 (ip), vehicle: saline with Tween-80

Measured: T/C

O=C(O)CC(=O)O.[Cu+2].[NH-]C1CCCC2CCC[N-]C12 (configuration not stated)
inactive: dose: 5.0 mg/kg/injection, schedule: Q04DX002 (ip), vehicle: saline 93 % of control | dose: 10.0 mg/kg/injection, schedule: Q04DX002 (ip), vehicle: saline 108 % of control

CC1(C)CCCc2c(-c3ccccc3)cc3c4[nH]c5ccccc5c4cc[n+]3c21
inactive: [1] 99 % of control | [2] 99 % of control | [3] 101 % of control

O=S(=O)(O)c1ccc(OCCCCCCCCCCOc2ccc(S(=O)(=O)O)cc2)cc1
inactive: [4] 105 % of control | [5] 102 % of control | [6] 98 % of control

COc1cc(OC)cc(C2OC3=C(Nc4ccccc4N3)C2=O)c1 (configuration not stated)
inactive: dose: 60.0 mg/kg/injection, schedule: Q01DX005 (ip), vehicle: Klucel (hydroxypropylcellulose) (HPC) 93 % of control | dose: 120.0 mg/kg/injection, schedule: Q01DX005 (ip), vehicle: Klucel (hydroxypropylcellulose) (HPC) 89 % of control

O=C1CSC(=S)N1c1ccc(F)c(F)c1
inactive: [7] 107 % of control | [8] 106 % of control | [9] 108 % of control

O=C(O)c1ccc(N=NNc2ccc(C(=O)O)cc2)cc1
inactive: [10] 96 % of control | [11] 99 % of control | [12] 95 % of control | dose: 400.0 mg/kg/injection, schedule: Q01DX009 (ip), vehicle: Klucel (hydroxypropylcellulose) (HPC) 96 % of control

N#CCC(=O)NCc1ccncc1
inactive: dose: 25.0 mg/kg/injection, schedule: Q01DX009 (ip), vehicle: saline 110 % of control | [7] 100 % of control | [8] 108 % of control | [9] 110 % of control | dose: 400.0 mg/kg/injection, schedule: Q01DX009 (ip), vehicle: saline 101 % of control

CC1(C)OC2(C)CCC1C1C2N1C(=O)C1CC1 (configuration not stated)
inactive: dose: 50.0 mg/kg/injection, schedule: Q01DX005 (ip), vehicle: saline with Tween-80 97 % of control | dose: 100.0 mg/kg/injection, schedule: Q01DX005 (ip), vehicle: saline with Tween-80 104 % of control | dose: 200.0 mg/kg/injection, schedule: Q01DX005 (ip), vehicle: saline with Tween-80 105 % of control

C=CC1C(C[C@@H]2c3cc(O)c(O)cc3CCN2C(C)=O)C(C(=O)OC)=CO[C@H]1OC1OC(CO)C(O)C(O)C1O (some centres not stated)
inactive: [4] 105 % of control | [5] 103 % of control | [6] 104 % of control

CC(=O)OC1C=CC2OC2(COC(=O)c2ccccc2)C1OC(C)=O (configuration not stated)
inactive: dose: 2.5 mg/kg/injection, schedule: Q01DX009 (ip), vehicle: Klucel (hydroxypropylcellulose) (HPC) 87 % of control | dose: 5.0 mg/kg/injection, schedule: Q01DX009 (ip), vehicle: Klucel (hydroxypropylcellulose) (HPC) 99 % of control | dose: 10.0 mg/kg/injection, schedule: Q01DX009 (ip), vehicle: Klucel (hydroxypropylcellulose) (HPC) 92 % of control | dose: 28.75 mg/kg/injection, schedule: Q01DX005 (ip), vehicle: saline + Tween-80 + alcohol 100 % of control | dose: 57.5 mg/kg/injection, schedule: Q01DX005 (ip), vehicle: saline + Tween-80 + alcohol 102 % of control | dose: 115.0 mg/kg/injection, schedule: Q01DX005 (ip), vehicle: saline + Tween-80 + alcohol 100 % of control | dose: 230.0 mg/kg/injection, schedule: Q01DX005 (ip), vehicle: saline + Tween-80 + alcohol 100 % of control

OCC1SC(O)C(O)C(O)C1O (configuration not stated)
inactive: dose: 120.0 mg/kg/injection, schedule: Q##DX005 (ip), vehicle: saline 97 % of control | dose: 240.0 mg/kg/injection, schedule: Q##DX005 (ip), vehicle: saline 92 % of control | dose: 600.0 mg/kg/injection, schedule: Q01DX001 (ip), vehicle: saline 102 % of control and 104 % of control | dose: 1200.0 mg/kg/injection, schedule: Q01DX001 (ip), vehicle: saline 100 % of control and 104 % of control

CC[Si](/C=C(/C)C(C)(C)C)(CC)CC
inactive: [1] 94 % of control | [2] 96 % of control | [3] 113 % of control

O=C(CC1(O)C(=O)Nc2ccccc21)c1ccc([N+](=O)[O-])cc1 (configuration not stated)
inactive: dose: 60.0 mg/kg/injection, schedule: Q01DX005 (ip), vehicle: saline with Tween-80 102 % of control | dose: 120.0 mg/kg/injection, schedule: Q01DX005 (ip), vehicle: saline with Tween-80 95 % of control | dose: 240.0 mg/kg/injection, schedule: Q01DX005 (ip), vehicle: saline with Tween-80 100 % of control

COc1ccc(OC/C(C)=N\NS(=O)(=O)c2cc(Cl)c(Cl)cc2Cl)cc1
inactive: dose: 100.0 mg/kg/injection, schedule: Q01DX001 (ip), vehicle: gum acacia 96 % of control | dose: 200.0 mg/kg/injection, schedule: Q01DX001 (ip), vehicle: gum acacia 93 % of control | dose: 400.0 mg/kg/injection, schedule: Q01DX001 (ip), vehicle: gum acacia 95 % of control

COC(=O)/C=C1\C[C@H]2C[C@]3(O)O[C@H](C[C@@H](O)CC(=O)O[C@@H]([C@@H](C)O)C[C@@H]4C/C(=C\C(=O)OC)[C@H](OC(C)=O)[C@@](O)(O4)C(C)(C)/C=C/[C@@H](C1)O2)C[C@H](OC(=O)CC(C)C)C3(C)C
inactive: dose: 3.0 micrograms/kg/injection, schedule: Q01DX009 (ip), vehicle: saline + alcohol 111 % of control | dose: 5.0 micrograms/kg/injection, schedule: Q01DX009 (ip), vehicle: saline + alcohol 113 % of control

N/C(=N\N=C\c1cccnc1)SCCCCBr
inactive: dose: 0.78 mg/kg/injection, schedule: Q01DX001 (ip), vehicle: saline 100 % of control | dose: 0.78 mg/kg/injection, schedule: Q01DX009 (ip), vehicle: saline 110 % of control | dose: 1.56 mg/kg/injection, schedule: Q01DX001 (ip), vehicle: saline 101 % of control and 110 % of control | dose: 3.12 mg/kg/injection, schedule: Q01DX001 (ip), vehicle: saline 110 % of control

COC(=O)C1(CC(=O)C=C(C)C)NC(=S)NC(=O)C1C#N (configuration not stated)
inactive: [4] 98 % of control | [5] 103 % of control | [6] 98 % of control

COC(=O)C12CCCC1(C(=O)OC)N2N1C(=O)c2ccccc2C1=O (configuration not stated)
inactive: dose: 50.0 mg/kg/injection, schedule: Q01DX005 (ip), vehicle: Klucel (hydroxypropylcellulose) (HPC) 100 % of control | dose: 100.0 mg/kg/injection, schedule: Q01DX005 (ip), vehicle: Klucel (hydroxypropylcellulose) (HPC) 100 % of control | dose: 200.0 mg/kg/injection, schedule: Q01DX005 (ip), vehicle: Klucel (hydroxypropylcellulose) (HPC) 105 % of control

Cc1cc(O)c(C(c2ccc3c(c2)OCO3)c2c(O)cc(C)[nH]c2=O)c(=O)[nH]1
inactive: [1] 92 % of control | [2] 98 % of control | [3] 95 % of control

CCc1nnc2c(c(=O)n(C)c(=O)n2C)[n+]1[O-]
inactive: dose: 20.0 mg/kg/injection, schedule: Q01DX001 (ip), vehicle: Klucel (hydroxypropylcellulose) (HPC) 106 % of control | dose: 40.0 mg/kg/injection, schedule: Q01DX001 (ip), vehicle: Klucel (hydroxypropylcellulose) (HPC) 106 % of control | dose: 80.0 mg/kg/injection, schedule: Q01DX001 (ip), vehicle: Klucel (hydroxypropylcellulose) (HPC) 112 % of control | dose: 100.0 mg/kg/injection, schedule: Q01DX001 (ip), vehicle: Klucel (hydroxypropylcellulose) (HPC) 109 % of control

O=C1c2cc(Br)ccc2OC2CCON12 (configuration not stated)
inactive: [10] 108 % of control | [11] 107 % of control | [12] 94 % of control

COc1cc2c(=O)n3c4c(cccc4c2cc1OC)CC3
inactive: dose: 25.0 mg/kg/injection, schedule: Q01DX009 (ip), vehicle: other 98 % of control | dose: 50.0 mg/kg/injection, schedule: Q01DX009 (ip), vehicle: other 91 % of control | dose: 100.0 mg/kg/injection, schedule: Q01DX009 (ip), vehicle: other 91 % of control | dose: 200.0 mg/kg/injection, schedule: Q01DX009 (ip), vehicle: other 89 % of control | dose: 400.0 mg/kg/injection, schedule: Q01DX009 (ip), vehicle: other 96 % of control

CC1(C)NC1C(O)c1ccccc1 (configuration not stated)
inactive: [7] 102 % of control | [8] 103 % of control | [9] 104 % of control

COc1ccc(NC(N)=S)cc1OC
inactive: dose: 50.0 mg/kg/injection, schedule: Q04DX003 (ip), vehicle: saline with Tween-80 95 % of control | [13] 88 % of control | [14] 88 % of control

CCCCCCCCCCCCCCCCCCCCCC(O)(CC)CC
inactive: [2] 100 % of control | [13] 100 % of control | [3] 109 % of control | [14] 100 % of control | dose: 400.0 mg/kg/injection, schedule: Q01DX009 (ip), vehicle: saline with Tween-80 100 % of control | dose: 400.0 mg/kg/injection, schedule: Q04DX003 (ip), vehicle: saline with Tween-80 110 % of control
